Consider 6 substances from patent US20150011393A1, “METHOD FOR INTRODUCING FLORIGEN” (priority 2012, published 2015).

Series [1] has as its system Rice radicles, cultured rice cells (rice protoplasts), tobacco leaves, and Arabidopsis leaves. The series can be described thus: Quantitative efficiency of introduction of GFP by eight cell-penetrating peptides in four tissues. It is filed as cell-based. To be noted: rank among eight cell-penetrating peptides over four tissues (32 treatment groups). The protocol:
Eight kinds of cell-penetrating peptides shown in Table 1 above and GFP were separately mixed in PBS (137 mM NaCl, 2.7 mM KCl, 10 mM Na2HPO4, 1.76 mM KH2PO4) (pH 7.4) so as to achieve a final concentration of 50 μM, and rice radicles were immersed in the mixtures. The eight kinds of cell-penetrating peptides are typical peptides selected from arginine-rich peptides, amphiphilic peptides, and peptides each having an RXLR sequence, and were prepared by chemical synthesis.
The immersion treatment was carried out for 16 hours at room temperature, followed by low-temperature treatment at 4° C. for 4 hours. The samples were washed until fluorescence was not observed in a negative control group treated with GFP alone, and cells were counted under a fluorescence stereomicroscope to calculate ratios of fluorescent cells.
(2) The efficiency of introduction of GFP by the eight kinds of cell-penetrating peptides was examined quantitatively in the same manner as in (1) above. Rice radicles (FIG. 2a), cultured rice cells (rice protoplasts) (FIG. 2b), tobacco leaves (FIG. 2c), and Arabidopsis leaves (FIG. 2d) were used as tissues to be examined. A total of 32 treatment groups were evaluated.

The subject of series [2] is Arabidopsis. The series can be described thus: Flowering-promoting effect in Arabidopsis plant body after direct introduction of florigen. Type of series: in vivo. The protocol:
A mixed solution prepared by mixing the florigen mHd3a-1 and the cell-penetrating peptide R9 in ten-times diluted PBS in the same manner as in Example 3 was used for treatment of seedling of Arabidopsis at the time of cotyledon expansion about three days after seeding. It should be noted that the shoot apices in seedling of Arabidopsis was exposed at the time of cotyledon expansion. The treatment was carried out at room temperature for 2 days. After that, the mixed solution was washed, and the plants were cultivated on the MS medium under a short-day condition (day length: 10 hours) for from 30 to 40 days to examine the timing of the flowering. The examination condition of the start of the flowering was defined as the start of bolting or a state where differentiation of flower buds was visually observed, and whether the flowering was early or late was evaluated based on the number of rosette leaves at the time when the state described above was achieved. In the case of Arabidopsis, rosette leaves are usually extracted, and the extraction of the rosette leaves is stopped when the flowering is started. When the flowering is started in the early stage, the number of the leaves is small because only a small number of the rosette leaves can be extracted, while when it takes a long time before the flowering is started, the number of the leaves is large because many rosette leaves can be extracted.
FIG. 12 and FIG. 13 show the results. FIG. 12 are photographs taken on day 14 and day 21, when the cultivation start date under the short-day condition is defined as day 0. The enlarged view is one obtained by enlarging the area enclosed by a dashed line in the photograph of a flower bud of an individual treated with the mixed solution of mHd3a-1 and R9, which was taken on day 21. In addition, the numbers in the graph of FIG. 13 represent numbers of individuals that achieved the flowering at each number of leaves. […]

The subject of series [3] is rice root epidermal cells. The series can be described thus: Effect of molar ratio of cell-penetrating peptide to protein on efficiency of introduction of GFP. Type of series: cell-based. The protocol: (3) The effect of the molar ratios of the cell-penetrating peptides to the protein on the efficiency of introduction of the protein was examined. The molar ratios of the cell-penetrating peptides (Avr1b and R9) to the protein were changed to 0.01, 0.1, 1, and 10, and the efficiency of introduction of GFP into rice root epidermal cells was evaluated.

For series [4], the system named is flower-bud formation marker gene OsMADS15. Briefly: Florigen function in transient expression system for protoplasts (with OsFD1), RT-PCR. To be noted: transiently expressed with OsFD1 in protoplasts; compared among five mutated Hd3a's. Type of series: cell-based. From the text:
(2) The florigen functions were examined for mutated Hd3a partial peptides of mHd3a-2F (full-length, having C43L, C109S, and C166S amino acid substitutions) and m-Hd3a-3F (full-length, having K31A, Y136A, and W140A amino acid substitutions) in addition to the mutated Hd3a's examined in (1) above, i.e., mHd3a-1, mHd3a-2T, and mHd3a-3T. The as say system used is a transient expression system for protoplasts. When the mutated Hd3a and a transcription factor OsFD1 are transiently expressed in protoplasts in this system, a flower-bud formation marker gene OsMADS15 is transcriptionally activated if the Hd3a is functional. The transient expression system for protoplasts was constructed according to the method described in Non Patent Literature 2. In addition, the expression of the OsMADS15 gene was examined by RT-PCR method according to the method described in Non Patent Literature 2.

For series [5], the system named is shoot apical tissues of corn. The series can be described thus: Introduction of florigen into cells of shoot apical tissue of corn. It is filed as cell-based. To be noted: mixed solution with R9 as in Example 3. The protocol: (§1) The mHd3a-1 prepared by high level expression in Example 2 was labeled with a fluorochrome FITC. Subsequently, a rice shoot apical tissue was exposed under a stereomicroscope, and the cell-penetrating peptide and the florigen were mixed and used for treatment of the plant tissue in the same manner as in Example 1. A mixed solution was prepared by adding the florigen at a final concentration of 50 μM and the cell-penetrating peptide R9 at a final concentration of 500 μM in PBS (pH 7.4). The mixed solution was added dropwise to the exposed shoot apical tissue to bring the mixed solution into contact with the tissue. The tissue was treated for 16 hours at room temperature.
(§2) In the same manner as in Example 3, the mixed solution of the cell-penetrating peptide and the florigen was added dropwise to shoot apical tissues of corn and Arabidopsis to treat the tissues.

In series [6] the test system is flower-bud formation marker gene. Briefly: Expression of flower-bud formation marker gene after direct introduction of florigen, rice with all florigens inactivated (Hd3a-RFT1 double RNAi). It is filed as in vivo. To be noted: introduced with R9 as in Example 3. From the text:
(§3) (1) A rice shoot apical tissue into which the florigen was introduced was isolated in the same manner as in Example 3. RNA was extracted from the rice shoot apical tissue by a conventional method, and expression of a flower-bud formation marker gene (OsMADS15 gene) was examined by real-time quantitative RT-PCR (see Non Patent Literature 2 for the method).
(2) Further, rice in which all florigens were inactivated (Hd3a-RFT1 double RNAi) (Komiya et al. (2008) Development 135:767-774) was subjected to the same experiment as in (1).

Series [7] deals with shoot apical tissues of Arabidopsis. Briefly: Introduction of florigen into cells of shoot apical tissue of Arabidopsis. To be noted: mixed solution with R9 as in Example 3. It is filed as cell-based. The protocol:
as §1, §2

The subject of series [8] is rice shoot apical tissue. Briefly: Introduction of FITC-labeled florigen into cell of rice shoot apical tissue. Type of series: cell-based. To be noted: florigen 50 μM, R9 500 μM in PBS (pH 7.4). The protocol:
as §1

For series [9], the system named is APETALA1 (AP1) gene, FRUITFULL (FUL) gene, and SQUAMOSA PROMOTER BINDING-LIKES (SPL3) gene. Briefly: Induction of expression of flowering-responsive genes in Arabidopsis after direct introduction of florigen, real-time quantitative RT-PCR. To be noted: shoot apical tissue after 2 weeks cultivation. It is filed as in vivo. An excerpt: The florigen was introduced directly into Arabidopsis in the same manner as in Example 6, and then the plants were cultivated for 2 weeks, followed by collection of a shoot apical tissue from each individual. RNA was extracted from the shoot apical tissue collected from each individual, and cDNA was synthesized based on a reverse transcription reaction. After that, the expression levels of APETALA1 (AP1) gene, FRUITFULL (FUL) gene, and SQUAMOSA PROMOTER BINDING-LIKES (SPL3) gene were examined by real-time quantitative RT-PCR (see Yamaguchi et al. Dev. Cell 17:268-278 (2009)).

Series [10] can be described thus: Search for florigen capable of high level expression (soluble fractions). To be noted: recombinant expression of mutated Hd3a. An excerpt: FIG. 5 is a photograph showing mHd3a-1 separated and detected by SDS-PAGE through a conventional method.
Series [11] deals with flower-bud formation marker gene (OsMADS15 gene). Briefly: Expression of flower-bud formation marker gene after direct introduction of florigen, wild-type rice, real-time quantitative RT-PCR. It is filed as in vivo. To be noted: wild-type rice shoot apical tissue; introduced with R9 as in Example 3.
Text: as §3

Take “R9: cell-penetrating peptide RRRRRRRRR (SEQ ID NO: 7), arginine-rich, artificially designed sequence (Membrane-permeable peptide R9)”: the “comprehensive efficiency of introduction of GFP” value in series [1] is “second highest”. Further, the “start of the flowering when the number of the leaves was 14 or less (almost all the plants)” value in series [2] (R9 alone, short-day condition) is recorded as “did not start the flowering”. Further, in series [3] (mixed solution of cell-penetrating peptide and GFP), the “change of introduction efficiency as molar ratio increased in the order of 0.01, 0.1, 1, and 10” value was “the introduction efficiency increased”. For the same substance, the “increase of efficiency of introduction of GFP, molar ratio 10 versus molar ratio 1” value in [3] (molar ratio of cell-penetrating peptide to protein 10 compared to 1) is listed as 2.5 times.
Regarding “Tat: cell-penetrating peptide YGRKKRRQRRR (SEQ ID NO: 2), arginine-rich, derived from Tat protein of HIV virus (Membrane-permeable peptide Tat)”, in series [1], the “comprehensive efficiency of introduction of GFP” value was “second highest”.
Take “mHR: mutated Hd3a incapable of being bound to a receptor (Hd3a R64D F103A R132D), used mixed with R9”: in series [2] (used instead of mHd3a-1 in mixed solution with R9, short-day condition), the “effect of promoting the start of the flowering” value is “not observed”.
For “mHd3a-1: mutated rice Hd3a, full-length, having K31A and E57A amino acid substitutions”, the “activation of transcription of the OsMADS15 gene” value in series [4] is recorded as “most desirably activated”. In series [5], the “introduction into the shoot apical tissue of corn” value is reported as “introduced efficiently” and the “localization in the cell of the shoot apical tissue of corn” value is “localized accurately in the nucleus”. For the same substance, the “expression of the flower-bud formation marker gene” value in series [6] is reported as “could activate the expression”. In series [7], the “introduction into the shoot apical tissue of Arabidopsis” value is reported as “introduced efficiently” and the “localization in the cell of the shoot apical tissue of Arabidopsis” value is “localized accurately in the nucleus”. The “plants able to start the flowering when the number of the leaves was 14 or less” value in series [2] (Arabidopsis seedlings treated 2 days with mixed solution with R9 in ten-times diluted PBS, short-day condition 30 to 40 days) is listed as “about 30%”. The “localization in the cell of the rice shoot apical tissue” value in series [8] (16 hours) is “localized accurately in the nucleus”. Moreover, in series [8] (16 hours at room temperature), the “introduction into the rice shoot apical tissue” value was “introduced efficiently”. Besides, the “individuals treated in which induction of the expression was observed” value in [9] was “about 30%”. Moreover, the “expression of AP1, FUL and SPL3 genes” value in series [9] (eIF4a internal standard) was “activated the expression of the three genes”. For the same substance, in series [10], the “high level expression and soluble fractions” value is “capable of high level expression and providing soluble fractions”. Further, the “expression of the flower-bud formation marker gene (OsMADS15 gene)” value in [11] was “can activate expression”.
As for “mHd3a-2T: partial peptide of Hd3a, amino acids at positions from 6 to 170, having C43L, C109S, and C166S substitutions”, the “high level expression and soluble fractions” value in series [10] is “capable of high level expression and providing soluble fractions”.
For “mHd3a-3T: partial peptide of Hd3a, amino acids at positions from 8 to 170, having K31A, Y136A, and W140A substitutions”, in [10], the “high level expression and soluble fractions” value is “capable of high level expression and providing soluble fractions”.
